This is an account of results in ChEMBL document CHEMBL4425153, “Matched and mixed cap derivatives in the tetracyclic indole class of HCV NS5A inhibitors” (Bioorg Med Chem Lett, 2016).

Positions count from the first letter of the chain named.

Data set [1] in a line: AUC in rat at 5 mg/kg. In kind it is ADME, organism-based. Particulars: in vivo.
Data set [2] is described as follows: Cmax in rat at 5 mg/kg. Also noted: dose 5 mg/kg. Type of data set: ADME, organism-based. To be noted: in vivo.
For data set [3], the system named is T1, Nonstructural protein 5A (Hepatitis C virus), Q5L478 [Y93H].
T1 sequence (whole entry): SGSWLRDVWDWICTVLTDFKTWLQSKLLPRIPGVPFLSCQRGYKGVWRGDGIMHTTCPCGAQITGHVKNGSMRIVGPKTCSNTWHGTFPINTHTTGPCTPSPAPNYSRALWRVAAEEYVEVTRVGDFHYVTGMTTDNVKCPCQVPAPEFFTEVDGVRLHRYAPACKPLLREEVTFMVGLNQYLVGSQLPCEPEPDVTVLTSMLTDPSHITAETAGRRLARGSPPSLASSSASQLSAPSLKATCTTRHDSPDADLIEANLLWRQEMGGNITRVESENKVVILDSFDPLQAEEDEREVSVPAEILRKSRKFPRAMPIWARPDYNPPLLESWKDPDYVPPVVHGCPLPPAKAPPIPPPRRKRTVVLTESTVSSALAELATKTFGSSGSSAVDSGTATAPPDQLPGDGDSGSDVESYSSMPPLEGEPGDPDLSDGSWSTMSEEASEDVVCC
Put plainly: Inhibition of HCV genotype 1a NS5A Y93H mutant assessed as reduction in viral RNA level by cell based real time PCR method. Particulars: Hepatitis C virus subtype 1a. On the technique in general: Real-time PCR tracks product formation cycle by cycle.

For data set [4], the target named is T2, Nonstructural protein 5A (Hepatitis C virus) (UniProt Q5L478).
T2 sequence (whole entry): T1 sequence (whole entry) with H93Y
Nature of the data set: Inhibition of wild type HCV genotype 1a NS5A assessed as reduction in viral RNA level by cell based real time PCR method. Particulars: Hepatitis C virus subtype 1a.

Data set [5] concerns the target T2, Nonstructural protein 5A (Hepatitis C virus). Put plainly: Inhibition of wild type HCV genotype 2b NS5A assessed as reduction in viral RNA level by cell based real time PCR method. To be noted: Hepatitis C virus subtype 2b.
Data set [6] can be described thus: Oral bioavailability in rat at 5 mg/kg. Particulars: in vivo. In kind it is ADME, organism-based.
Data set [7] has as its system Nonstructural protein 5A (Hepatitis C virus), Q5L478 [UNDEFINED MUTATION]. Put plainly: Inhibition of HCV genotype 1a NS5A L31V mutant assessed as reduction in viral RNA level by cell based real time PCR method. To be noted: Hepatitis C virus subtype 1a.
Data set [8] in a line: Half life in rat at 5 mg/kg. In kind it is ADME, organism-based. Particulars: in vivo.
The nature of data set [9]: Tmax in rat at 10 mg/kg. In kind it is ADME, organism-based. To be noted: in vivo.
Data set [10] in a line: Drug level in rat at 10 mg/kg measured at 1 hr. In kind it is ADME, organism-based. Particulars: in vivo, read-out: Drug uptake.
The nature of data set [11]: Cmax in rat at 10 mg/kg. In kind it is ADME, organism-based. Further details: dose 10 mg/kg. To be noted: in vivo.

By AUC is commonly meant concentration integrated over time. Lower therefore signals low exposure. By Cmax is commonly meant the peak of the concentration-time curve. What is called EC90 is the concentration at which the effect reaches the 90% level. The bioavailability is the share of a dose that reaches the circulation, judged against a reference dose that is usually intravenous. A low value points to poor availability. As usually defined, the half-life is how long it takes for the measured level to halve. A lower half-life goes with rapid decline. As for `COC(=O)N[C@H](C(=O)N1CCC[C@H]1c1ncc(-c2ccc3c(c2)O[C@@H](c2ccccc2)n2c-3cc3cc(-c4cnc([C@@H]5CCCN5C(=O)[C@@H](NC(=O)OC)C5CCOCC5)[nH]4)ccc32)[nH]1)C1CCOCC1`, in data set [1], the AUC is 4 nM·h. The molecule further gave a Cmax in [2] of 20 nM. Further, the EC90 in [3] is 23 nM; in data set [4] it was 0.06 nM; in [5], 1.2 nM; in data set [7], below 0.2 nM. Further, the bioavailability in data set [6] was 0%. This molecule showed a half-life in data set [8] of 2.4 h.
Take `COC(=O)N[C@H](C(=O)N1CCC[C@H]1c1ncc(-c2ccc3c(c2)O[C@@H](c2ccccc2)n2c-3cc3cc(-c4cnc([C@@H]5CCCN5C(=O)[C@@H](NC(=O)OC)C5CCC(F)(F)CC5)[nH]4)ccc32)[nH]1)C(C)C`: the EC90 was 34 nM in data set [3], 0.018 nM in [4], 23 nM in data set [5] and 0.89 nM in data set [7].
Taken in the same sequence, the figures for `CC[C@H](C)[C@H](NC(=O)OC)C(=O)N1CCC[C@H]1c1ncc(-c2ccc3c(c2)O[C@@H](c2ccccc2)n2c-3cc3cc(-c4cnc([C@@H]5CCCN5C(=O)[C@@H](NC(=O)OC)C(C)C)[nH]4)ccc32)[nH]1` were 77 nM, 0.06 nM, 50 nM and 4.3 nM.
For `COC(=O)N[C@H](C(=O)N1CCC[C@H]1c1ncc(-c2ccc3c(c2)O[C@@H](c2ccccc2)n2c-3cc3cc(-c4cnc([C@@H]5CCCN5C(=O)[C@@H](NC(=O)OC)C5CCCCC5)[nH]4)ccc32)[nH]1)C1CCCCC1`, the EC90 in data set [3] is above 100 nM; in [4] it was 0.1 nM; in data set [5] it was above 100 nM; in data set [7], 11 nM.
`COC(=O)N[C@@H](CC1CCOCC1)C(=O)N1CCC[C@H]1c1ncc(-c2ccc3c(c2)cc2n3[C@H](c3ccccc3)Oc3cc(-c4cnc([C@@H]5CCCN5C(=O)[C@@H](NC(=O)OC)C(C)C)[nH]4)ccc3-2)[nH]1`: the EC90 was 24 nM in [3], 0.014 nM in data set [4], 8.9 nM in data set [5] and 0.33 nM in data set [7].
For the molecule `COC(=O)N[C@H](C(=O)N1CCC[C@H]1c1ncc(-c2ccc3c(c2)O[C@@H](c2ccccc2)n2c-3cc3cc(-c4cnc([C@@H]5CCCN5C(=O)[C@@H](NC(=O)OC)C5CC5)[nH]4)ccc32)[nH]1)C1CC1`, the EC90 in data set [3] was above 100 nM; in data set [4] it was 0.028 nM; in [5], above 100 nM; in data set [7], above 100 nM.
As a reminder, the Tmax is the time at which the peak concentration occurs. In the case of `COC(=O)N[C@H](C(=O)N1CCC[C@H]1c1ncc(-c2ccc3c(c2)cc2n3[C@H](c3ccccc3)Oc3cc(-c4cnc([C@@H]5CCCN5C(=O)[C@@H](NC(=O)OC)C5CCOCC5)[nH]4)ccc3-2)[nH]1)C(C)C`, the Tmax in [9] was found to be 0.75 h. In addition, the EC90 in data set [3] came to 11 nM; in data set [4] it was 0.061 nM; in [5] it was 4 nM; in data set [7], 0.4 nM. For the same molecule, in data set [10], the concentration at 1 h was determined as 30 nM. In data set [11], this molecule yielded a Cmax of 31 nM.
`COC(=O)N[C@@H](CC1CCOCC1)C(=O)N1CCC[C@H]1c1ncc(-c2ccc3c(c2)O[C@@H](c2ccccc2)n2c-3cc3cc(-c4cnc([C@@H]5CCCN5C(=O)[C@H](CC5CCOCC5)NC(=O)OC)[nH]4)ccc32)[nH]1`: the EC90 in data set [3] amounted to 40 nM; in data set [4], 0.1 nM; in data set [5] it was 18 nM; in [7], 0.77 nM.
For `COC(=O)N[C@@H](C(=O)N1CCC[C@H]1c1ncc(-c2ccc3c(c2)O[C@@H](c2ccccc2)n2c-3cc3cc(-c4cnc([C@@H]5CCCN5C(=O)[C@H](NC(=O)OC)C5CCOCC5)[nH]4)ccc32)[nH]1)C1CCOCC1`, in that order: above 100 nM, 8.6 nM, above 100 nM and above 100 nM.
